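Results reflect a 48-hour exposure of cells in 96-well plates to compound at five concentrations. GI50 = concentration required for 50% inhibition of growth.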 The source made the active and inactive calls. No stated cut-off is given here; in the data, active = GI50 up to about 1.1 µM and inactive = higher.
What was measured:
Test in all cases: DTP human tumour cell line panel, 48 h
SR = system: SR
TK-10 = system: TK-10
DMS-114 = system: DMS-114
M19-MEL = system: M19-MEL
NCI-H226 = system: NCI-H226
M14 = system: M14
NCI-H522 = system: NCI-H522
RXF 393 = system: RXF 393
DLD-1 = system: DLD-1
RPMI-8226 = system: RPMI-8226
HOP-62 = system: HOP-62
ACHN = system: ACHN
A498 = system: A498
HCC 2998 = system: HCC 2998
Malme-3M = system: Malme-3M

| Compound | GI50 (SR) | GI50 (TK-10) | GI50 (DMS-114) | GI50 (M19-MEL) | GI50 (NCI-H226) | GI50 (M14) | GI50 (NCI-H522) | GI50 (RXF 393) | GI50 (DLD-1) | GI50 (RPMI-8226) | GI50 (HOP-62) | GI50 (ACHN) | GI50 (A498) | GI50 (HCC 2998) | GI50 (Malme-3M) |
| --- | --- | --- | --- | --- | --- | --- | --- | --- | --- | --- | --- | --- | --- | --- | --- |
| O=C(Nc1ccc([N+](=O)[O-])cc1[N+](=O)[O-])C(=O)C(C(=O)c1ccc2ccccc2c1)C1OC(=O)c2ccccc21 (centres undefined) | 0.817 µM (active) | 24.1 µM (inactive) | 17.9 µM (inactive) | 12.2 µM (inactive) | 2.69 µM (inactive) | 15.9 µM (inactive) | 10.4 µM (inactive) | 12 µM (inactive) | 27.5 µM (inactive) | 9.44 µM (inactive) | 22.4 µM (inactive) | 25.6 µM (inactive) | 17.6 µM (inactive) | 12.4 µM (inactive) | – |
| O=C(/C=C/CC(O)(c1ccccc1)c1ccccc1)Nc1ccccc1Cl | > 100 µM (inactive) | > 100 µM (inactive) | > 100 µM (inactive) | > 100 µM (inactive) | > 100 µM (inactive) | > 100 µM (inactive) | > 100 µM (inactive) | – | > 100 µM (inactive) | > 100 µM (inactive) | > 100 µM (inactive) | > 100 µM (inactive) | > 100 µM (inactive) | > 100 µM (inactive) | 45.3 µM (inactive) |
| Cc1c2[nH]c3ccc(Br)cc3c2c(C)c2nccc(O)c12 | 12.1 µM (inactive) | 12.8 µM (inactive) | 17.7 µM (inactive) | 14.6 µM (inactive) | 16.6 µM (inactive) | 12.8 µM (inactive) | 12 µM (inactive) | – | 27.9 µM (inactive) | 14.3 µM (inactive) | 13.1 µM (inactive) | 10.1 µM (inactive) | – | 16.2 µM (inactive) | 13 µM (inactive) |
| CC(=O)Nc1ccc(C2=N/C(=C\c3ccc(Cl)c(Cl)c3)C(=O)O2)cc1 | 68.9 µM (inactive) | > 100 µM (inactive) | > 100 µM (inactive) | 82.6 µM (inactive) | > 100 µM (inactive) | > 100 µM (inactive) | > 100 µM (inactive) | > 100 µM (inactive) | 64 µM (inactive) | > 100 µM (inactive) | > 100 µM (inactive) | > 100 µM (inactive) | > 100 µM (inactive) | > 100 µM (inactive) | > 100 µM (inactive) |
| COc1cc2c(c(OC)c1OC)-c1[nH]ncc1CC2 | > 100 µM (inactive) | > 100 µM (inactive) | > 100 µM (inactive) | > 100 µM (inactive) | > 100 µM (inactive) | > 100 µM (inactive) | – | – | > 100 µM (inactive) | – | > 100 µM (inactive) | > 100 µM (inactive) | > 100 µM (inactive) | > 100 µM (inactive) | > 100 µM (inactive) |
| Cn1c(=O)nc2n(-c3ccc(Cl)cc3Cl)c3ccccc3nc-2c1=O | 19.2 µM (inactive) | 26.2 µM (inactive) | 1.94 µM (inactive) | 1.02 µM (active) | – | 1.76 µM (inactive) | – | 3.96 µM (inactive) | 3.29 µM (inactive) | 15.4 µM (inactive) | 11.7 µM (inactive) | – | – | 3.05 µM (inactive) | 1.24 µM (inactive) |

Reference: ChEMBL document CHEMBL1201862, “PubChem BioAssay data set” (2004)
